From US4404230A, “4-Hydroxy-1,2-Benzisothiazol-3(2H)-one-1,1-dioxides and salts thereof” (priority 1980, dated 1983)

What was measured:
taste testers [1] = assay: Determination of the threshold concentration (sweet taste); assay type: in vivo
Description: Aqueous solutions having concentrations of 1:12,500, 1:25,000, 1:50,000, and 1:100,000 were prepared of test compounds A, B and C and of comparison compounds X, Y and Z, and each was evaluated at 5 taste testers according to the following scoring system: Very sweet (=3 points), medium sweet (=2 points), weakly sweet (=1 point), and not sweet (=0 point). The tests were carried out as described by H. G. Schutz and F. J. Pilgrim in Food Research 22, 206 (1957). The dilution perceptible as sweet was defined as having the concentration at which the average value of the evaluation points reached 1.0 or more.

taste testers [2] = assay: Determination of the relative sweetening power in comparison to saccharose; assay type: in vivo; details: compared with 3% aqueous solution of saccharose
Excerpt: The relative sweetening power (often also defined as degree of sweetness) of sweetening agents in comparison with saccharose (cane sugar) varies considerably with concentration. […] Therefore, for the determination of the relative sweetening power of the test compounds a 3% aqueous solution of saccharose was always used for comparison.

[3] = Acid-stability in 0.1 N hydrochloric acid; assay type: physicochemical; details: 1% in 0.1 N hydrochloric acid, room temperature, 27 days
Description: For the stability test, substance B at a concentration of 1% was dissolved in 0.1 N hydrochloric acid and kept at room temperature for 27 days. […] The solid substance was furthermore tested in daylight and at 60° C. in the absence and in the presence of light for 4 weeks.

rats [4] = assay: Effect on motility of rats (sedative or stimulating effect); assay type: in vivo, Chbb:THOM-rats; details: 100 mg/kg p.o.
Description: In analogy to the method described by Fuhrer and Feldhofen (Arzneimittel-Forschung 11, 1027, 1961) substance B was tested on 6 female Chbb:THOM-rats (SPF) having a body weight of 160-190 gm, after administration of 100 mg/kg p.o. in a suspension of 1% tylose. The motility of the rats in cages was measured for 30 minutes one hour after administration of the test compound. A control group received only tylose. The change in motility given in percent with regard to that of the control group was determined.

[5] = system: Escherichia coli ATCC 9637; assay: Bacteriostasis, serial dilution test; assay type: cell-based; details: 320 μg/ml
Description: (§1) Substance B was tested with regard to its bacteria- and fungi-inhibiting effect by the serial dilution test and agar diffusion test.

[6] = system: Pseudomonas aeruginosa Hbg.; assay: Bacteriostasis, serial dilution test; assay type: cell-based; details: 320 μg/ml
Description: as §1

Sc. pyogenes ATCC 8688 [7] = assay: Bacteriostasis, serial dilution test; assay type: cell-based; details: 320 μg/ml
Description: as §1

[8] = system: Serratia marcescens ATCC 13880; assay: Bacteriostasis, serial dilution test; assay type: cell-based; details: 320 μg/ml
Description: as §1

[9] = system: Staphylococcus aureus SG 511; assay: Bacteriostasis, serial dilution test; assay type: cell-based; details: 320 μg/ml
Description: as §1

Streptococcus Aronson [10] = assay: Bacteriostasis, serial dilution test; assay type: cell-based; details: 320 μg/ml
Description: as §1

[11] = system: Escherichia coli ATCC 9637; assay: Bacteriostasis, agar diffusion test; assay type: cell-based; details: 16,000 μg/ml
Description: as §1

[12] = system: Pseudomonas aeruginosa Hbg.; assay: Bacteriostasis, agar diffusion test; assay type: cell-based; details: 16,000 μg/ml
Description: as §1

Sc. pyogenes ATCC 8688 [13] = assay: Bacteriostasis, agar diffusion test; assay type: cell-based; details: 16,000 μg/ml
Description: as §1

[14] = system: Serratia marcescens ATCC 13880; assay: Bacteriostasis, agar diffusion test; assay type: cell-based; details: 16,000 μg/ml
Description: as §1

[15] = system: Staphylococcus aureus SG 511; assay: Bacteriostasis, agar diffusion test; assay type: cell-based; details: 16,000 μg/ml
Description: as §1

Streptococcus Aronson [16] = assay: Bacteriostasis, agar diffusion test; assay type: cell-based; details: 16,000 μg/ml
Description: as §1

Aspergillus niger = assay: Fungistasis, agar diffusion test; assay type: cell-based; details: 16,000 μg/ml
Description: as §1

[17] = system: Candida albicans ATCC 10231; assay: Fungistasis, agar diffusion test; assay type: cell-based; details: 16,000 μg/ml
Description: as §1

[18] = system: Trychophyton mentagrophytes ATCC 9129; assay: Fungistasis, agar diffusion test; assay type: cell-based; details: 16,000 μg/ml
Description: as §1

Rat = assay: Test for acute toxicity, rat; details: for Animals which died: 6 animals
Description: The acute toxicity was determined after oral administration of substance B to male and female mice, rats and dogs. The substance was administered to mice and rats in the form of a suspension in tylose and to dogs in the form of a solution in water.

rats [19] = assay: Test for subacute toxicity in the rat; assay type: in vivo, Chbb:Thom-rats; details: 750 mg/kg daily, 5 weeks
Description: The test was carried out on 10 male and 10 female Chbb:Thom-rats. During a period of 5 weeks 750 mg/kg of substance B were administered to the animals daily. […] After the 5 weeks the animals were killed, and the following organs were dissected for histological examination: heart, lungs, liver, spleen, suprarenals, brain, kidney and pancreas.

beagles = assay: Test for subacute toxicity in the dog; details: in vivo
Description: The test was carried out in each 3 male and 3 female beagles. Over a period of 5 weeks 750 mg/kg of substance B were administered orally.
After the test period of 5 weeks the animals were killed and the same organs as above were taken for histological examination.

[20] = system: Salmonella typhimurium TA 98, TA 100, TA 1535, TA 1537 and TA 1538; assay: Test for mutagenic effects (AMES-system), all strains together; assay type: cell-based
Description: Compound B was tested according to the AMES-system [Mutation Research 31, 347-364 (1975)] for mutagenic properties. In order to show the whole spectrum of induced molecular DNA-damage (base substitutions, frame-shift mutations, deletions) the auxotrophic bacterial strains Salmonella typhimurium TA 98, TA 100, TA 1535, TA 1537 and TA 1538 were used as genetic indicators.
The tests for all microorganisms were carried out such that the effect of the test compound on a microsomal enzyme system together with the corresponding co-factors could be tested, and furthermore to determine the effect on enzyme induction. The tests were performed without an activating system and in the presence of an activating system. For the in-vitro-activation S-9 supernatants (fractions of the endoplasmatic reticulum) of normal, i.e. not pretreated rats and of rats induced by aroclor 1254 (500 mg/kg) wer used. For the S-9 induced fraction, 3 different concentrations were tested.
Compound B was tested at concentrations of 0.25, 2.5, 5 and 10 mg/plate.

In the case of O=C1NS(=O)(=O)c2cccc(O)c21.[Na], the “Average value of evaluation points” value (taste testers [1]; concentration 1:25000) is reported as 2.6 points, the “Average value of evaluation points” value (taste testers [1]; concentration 1:50000) is reported as 1.2 points and the “Average value of evaluation points” value (taste testers [1]; concentration 1:100000) is reported as 0.0 points. The “Relative sweetening power (Saccharose = 1)” value (taste testers [2]) was 210, the “stability in acid medium” value [3] was “No changes could be detected” and the “effect on motility of rats (in words)” value (rats [4]) was “does not affect the motility of the rats”. The Motility of rats (rats [4]; 60-90 min) was 235 ± 58 contacts/animal, the “% motility” value (rats [4]; 60-90 min, vs control) was 113% and the inhibiting effect [5] was “did not show any inhibiting effect”. The inhibiting effect [6] was “did not show any inhibiting effect”, the inhibiting effect (Sc. pyogenes ATCC 8688 [7]) was “did not show any inhibiting effect” and the inhibiting effect [8] was “did not show any inhibiting effect”. The inhibiting effect [9] was “did not show any inhibiting effect”, the inhibiting effect (Streptococcus Aronson [10]) was “did not show any inhibiting effect” and the inhibiting effect [11] was “did not show any inhibiting effect”. The inhibiting effect [12] was “did not show any inhibiting effect”, the inhibiting effect (Sc. pyogenes ATCC 8688 [13]) was “did not show any inhibiting effect” and the inhibiting effect [14] was “did not show any inhibiting effect”. For the same compound, the inhibiting effect [15] was “did not show any inhibiting effect”, the inhibiting effect (Streptococcus Aronson [16]) was “did not show any inhibiting effect” and the inhibiting effect (Aspergillus niger) was “did not show any inhibiting effect”. The inhibiting effect [17] was “did not show any inhibiting effect”, the inhibiting effect [18] was “did not show any inhibiting effect” and the Animals which died (Rat; 10 g/kg oral, 1 day) was 0. For the same compound, the Animals which died (Rat; 10 g/kg oral, 7 days) was 0, the Animals which died (Rat; 10 g/kg oral, 14 days) was 0 and the “deaths (in words)” value (Rat; 10 g/kg oral, during the observation time) was “no animals died”. The behavior (Rat; rat, in vivo, po) was “completely normal behavior”, the toxic symptoms (Rat; rat, in vivo, po) was “no toxic symptoms could be observed” and the behavior (rats [19]) was “normal behavior”. The spontaneous deaths (rats [19]) was “No spontaneous deaths could be observed”, the “histological examination of organs” value (rats [19]; heart, lungs, liver, spleen, suprarenals, brain, kidney, pancreas) was “did not show any pathological findings” and the behavior (beagles) was “did not show any abnormal behavior”. For the same compound, the “histological examination of organs” value (beagles) was “No changes could be observed”, the spontaneous deaths (beagles) was “Spontaneous deaths could not be observed” and the “effect on enzyme induction and the activating fraction upon the reversion rate” value [20] was “No effect on enzyme induction and the activating fraction upon the reversion rate was detected”. The “mutagenicity, overall” value [20] was “not mutagenic” and the “colonies counted on the test plates” value ([20]; each test strain) was “showed the normal spontaneous range for each test strain”.
